Measurements taken from US7977474B2, “Uses of porphyrin compounds” (Destiny Pharma Ltd., priority 2004, dated 2011).
Where two headings read alike, the source gives them in different places.

What was measured:
[1] = test system: Staphylococcus aureus BAA-44, a multi-drug resistant Methicillin Resistant Staphylococcus aureus (MRSA) strain; assay: MIC and MBC of Compound 10 in the absence of light (Example B); assay type: cell-based
Source text: The minimum inhibitory concentration (MIC) for an antimicrobial agent against a specific microorganism is defined as the minimum concentration of an antibacterial agent where no apparent visible growth of the organism is observed (FDA definition of Minimum Inhibitory Concentration). MIC's are typically determined using concentrations derived traditionally from serial twofold dilutions (National Committee for Clinical Laboratory Standards (NCCLS) Handbook M7-A5: “Methods for Dilution Antimicrobial Susceptibility Tests for Bacteria that Grow Aerobically; Approved Standard—5th Edition” Volume 20 Number 2. January 2000). The MIC for Compound 10 in the absence of light was investigated, using a protocol based on the MIC protocol produced by the NCCLS (National Committee for Clinical Laboratory Standards (NCCLS) Handbook M7-A5, supra).
Staphylococcus aureus BAA-44, a multi-drug resistant Methicillin Resistant Staphylococcus aureus (MRSA) strain obtained from the ATCC catalogue, was used in this study. The following concentrations of Compound 10 were investigated: 0.764; 0.382: 0.191; 0.0955; 0.0478; 0.0239, 0.0119, 0.00597, 0.00298, 0.00149, 0.00075 & 0.00037 μg/mL. Stock solutions were made up in distilled water and serial dilutions undertaken of this to produce the required concentrations immediately prior to use.
At least 3 to 5 well-isolated colonies of the same morphological type were selected from an agar plate culture and the growth transferred to a tube containing 100 mL of Isosensitest Broth and the broth culture is incubated at 37° C. overnight. The culture was then be diluted to a final density of 10^4 cells/mL with fresh Isosensitest Broth and incubated with shaking at 37° C. until the cells entered exponential growth.
0.09 mL of the adjusted inoculum was transferred into each of 24 wells of a polystyrene 96 well microtiter plate. A control well of bacteria alone in the presence of growth medium alone was included (as a positive control).
0.09 mL of the Compound 10 stock solutions from the dilution series were pipetted into the relevant well for the microtiter plates and incubated in the dark at 37° C. and the plates examined after 24 hours incubation to determine the turbidity in each well.

[2] = test system: Staphylococcus aureus (methicillin resistant); assay: MIC (IsoSensitest broth) and MBC (subculture on blood agar), reference strains and clinical isolates (Example C); assay type: cell-based
Procedure: (§1) The Minimum Inhibitory Concentrations (MIC's) for Compound 10, over a range of reference strains and clinical isolates, were determined using IsoSensitest® broth and Minimum Bactericidal concentrations (MBC's) determined by subculture onto Columbia blood agar.
(§2) • 1. A 5 mg/ml stock solution of Compound 10 was made up in water • 2. A series of dilutions were undertaken to produce a range of concentrations between 32-0.001 mg/L • 3. The test microorganisms were grown up overnight in IsoSensitest® broth • 4. The cultures were then diluted with fresh broth to a final concentration of 10^4 organisms/ml and placed on a shaker for 90 minutes at 37° C. • 5. 90 μl of the broth culture containing the microorganisms were transferred to each of 12 wells in a row in a microtitre tray and repeated in a control tray—four organisms per tray. • 6. 90 μL of the appropriate Compound 10 dilution was then added to each well containing organisms to give a final dilution series from 16 mg/L to 0.0005 mg/L • 7. The solutions were mixed well and incubated in the dark for 24 hours • 8. […] The MBC values were recorded after overnight incubation of the subcultures. • 10. Controls of uninoculated broth and broth plus inoculum were undertaken for each organism in each tray Results

Enterococcus faecalis = assay: MIC and MBC, reference strains and clinical isolates (Example C); assay type: cell-based
Procedure: as §1, §2

Enterococcus faecium = assay: as above; assay type: cell-based
Procedure: as §1, §2

[3] = test system: Staphylococcus aureus (methicillin sensitive); assay: as above; assay type: cell-based
Procedure: as §1, §2

[4] = test system: Staphylococcus epidermidis (methicillin resistant); assay: as above; assay type: cell-based; conditions: for MIC: Staphylococcus epidermidis, dark 24 hours
Procedure: as §1, §2

[5] = test system: Staphylococcus epidermidis (methicillin sensitive); assay: as above; assay type: cell-based; conditions: 37453, clinical isolate
Procedure: as §1, §2

[6] = test system: normal human epidermal keratinocytes (NHEK); assay: Toxicity against human skin cells, MTT-assay (Example D); assay type: cell-based; conditions: 0.01-10 μM, 5 min, 1 h and 4 h incubation, then 24 h in the dark
Procedure: (§3) NHEK were incubated with different concentrations of Compound 10 for 5 min, 1 h and 4 h (0 μM, 0.01 μM, 0.1 μM, 1.0 μM, 10 μM). Cells were then incubated for 24 h in the dark. Toxicity was tested by standard MTT-assay. Cell viability was normalised to one, which means, the values of control cells were normalised to one. Red dotted line: 5 min incubation; black dotted: 1 h incubation; blue dotted: 4 h incubation only; (n=3, mean±SD).
(§4) Test compounds were screened for toxicity against cultured human skin cells using normal human epidermal keratinoctes (NHEK) and normal human dermal fibroblasts (NHDF), purchased from CellSystems Biotechnologie GmbH, Germany.
(§5) The NHEK and NHDF cells were used between passages 3 and 10. The cells were seeded with 7.5 and/or 15×10^4 cells/well (microtitre plate) and were allowed to attach overnight in an incubator (37° C., 5% CO2). After incubation with different concentrations of the selected photosensitisers for various times, the cells were incubated for 24 hours in the dark.
(§6) Toxicity was tested by standard MTT-assay (Mossman et al., 1983 J. Immunological Methods 65: 55-63). MTT is an indicator of metabolically active cells. Dependent on enzyme activity in mitochondria a colour reaction can be visualised, which can be measured by ELISA reader (540 nm). […]

[7] = test system: normal human dermal fibroblasts (NHDF); assay: as above; assay type: cell-based; conditions: 0.01-10 μM, 5 min, 1 h and 4 h incubation, then 24 h in the dark
Procedure: as §3, with “NHDF” for “NHEK”, “Grey” for “Red”, “black line:” for “blue dotted:”, “incubation;” for “incubation only;”
as §4, §5, §6

[8] = Acute dermal toxicity test (OECD 402) (Example G); assay type: in vivo; conditions: 3.2 mM in a topical formulation
Procedure: Compound 10 was tested at 3.2 mM in a topical formulation in a standard acute dermal toxicity test to determine if any clinical or histological toxicity for the compound could be detected.
The acute toxicity protocol was based on OECD Guidelines for the testing of chemicals/Section 4—Health Effects Test Number 402: Acute Dermal Toxicity.

Escherichia coli = conditions: visible light after incubation; Valduga et al., 1999; cited from earlier work

C[N+](C)(C)CCCOc1ccc(-c2c3nc(cc4ccc([nH]4)c(-c4ccc(OCCC[N+](C)(C)C)cc4)c4nc(cc5ccc2[nH]5)C=C4)C=C3)cc1 [Compound 10, 5,15-bis-[4-(3-Trimethylammonio-propyloxy)-phenyl]-porphyrin dichloride]
MIC ([1]; Series 2, dark): 0.0955 µg/mL
MIC ([1]; Staphylococcus aureus, Series 1, dark, read-out: MIC): 0.0955 µg/mL
MBC ([1]; Staphylococcus aureus, absence of light): 0.382 µg/mL
MIC ([1]; Staphylococcus aureus, absence of light, 24 hours incubation at 37° C., read-out: MIC): 0.0955 µg/mL
MIC ([2]; 24 h, EMRSA-16, clinical isolate, dark 24 hours): 0.5 µg/mL
MIC ([2]; ATCCBAA44, 24 h, ATCC BAA-44 Experiment 1, dark 24 hours): 0.5 µg/mL
MIC ([2]; ATCCBAA44, 24 h, ATCC BAA-44 Experiment 2, dark 24 hours): 0.5 µg/mL
MIC ([2]; ATCCBAA44, 24 h, ATCC BAA-44 Experiment 3, dark 24 hours): 2 µg/mL
MIC ([2]; ATCCBAA44, 24 h, ATCC BAA-44 Experiment 4, dark 24 hours): 0.5 µg/mL
MIC ([2]; ATCCBAA44, 24 h, ATCC BAA-44 Experiment 5, dark 24 hours): 0.5 µg/mL
MIC ([2]; ATCCBAA44, 24 h, ATCC BAA-44 Experiment 6, dark 24 hours): 0.5 µg/mL
MBC ([2]; ATCCBAA44, ATCC BAA-44 Experiment 1): 0.5 µg/mL
MBC ([2]; ATCCBAA44, ATCC BAA-44 Experiment 2): 1 µg/mL
MBC ([2]; ATCCBAA44, ATCC BAA-44 Experiment 3): 2 µg/mL
MBC ([2]; ATCCBAA44, ATCC BAA-44 Experiment 4): 1 µg/mL
MBC ([2]; ATCCBAA44, ATCC BAA-44 Experiment 5): > 1 µg/mL
MBC ([2]; ATCCBAA44, ATCC BAA-44 Experiment 6): 1 µg/mL
MBC ([2]; EMRSA-15, clinical isolate): 1 µg/mL
MBC ([2]; EMRSA-16, clinical isolate): 0.5 µg/mL
MIC ([2]; NCTC11939, 24 h, NCTC 11939 (EMRSA-1), dark 24 hours): 0.5 µg/mL
MBC ([2]; NCTC11939, NCTC 11939 (EMRSA-1)): 0.5 µg/mL
MBC (Enterococcus faecalis; ATCC29212, ATCC 29212): > 1 µg/mL
MBC (Enterococcus faecalis; E3, clinical isolate): 1 µg/mL
MIC (Enterococcus faecalis; E3, clinical isolate, dark 24 hours): 0.5 µg/mL
MBC (Enterococcus faecalis; E4, clinical isolate): 0.5 µg/mL
MBC (Enterococcus faecalis; E10, clinical isolate): 1 µg/mL
MBC (Enterococcus faecalis; E37, clinical isolate): 1 µg/mL
MBC (Enterococcus faecium; E1, clinical isolate): 1 µg/mL
MIC (Enterococcus faecium; E1, clinical isolate, dark 24 hours): 0.5 µg/mL
MBC (Enterococcus faecium; E5, clinical isolate): 1 µg/mL
MBC (Enterococcus faecium; E19, clinical isolate): 0.5 µg/mL
MBC (Enterococcus faecium; E44, clinical isolate): 0.5 µg/mL
MBC (Enterococcus faecium; NCTC12204, NCTC 12204): 1 µg/mL
MBC ([3]; ATCC25923, ATCC 25923): 1 µg/mL
MIC ([3]; ATCC25923, ATCC 25923, dark 24 hours): 0.5 µg/mL
MBC ([3]; NCTC6571, NCTC 6571): 0.5 µg/mL
MIC ([3]; NCTC6571, NCTC 6571, dark 24 hours): 0.5 µg/mL
MBC ([4]; Staphylococcus epidermidis, 33659, clinical isolate): 1 µg/mL
MBC ([4]; Staphylococcus epidermidis, 33759, clinical isolate): 1 µg/mL
MBC ([4]; Staphylococcus epidermidis, 36572, clinical isolate): 0.25 µg/mL
MBC ([4]; Staphylococcus epidermidis, 38808, clinical isolate): 0.5 µg/mL
MIC ([4]; 24 h, 33659, clinical isolate): 0.5 µg/mL
MIC ([4]; 24 h, 33759, clinical isolate): 0.5 µg/mL
MIC ([4]; 24 h, 36572, clinical isolate): 0.25 µg/mL
MIC ([4]; 24 h, 38808, clinical isolate): 0.5 µg/mL
MBC [5]: 0.5 µg/mL
MIC ([5]; dark 24 hours): 0.5 µg/mL
innate toxicity (MTT cell viability) [6]: does not demonstrate an innate toxicity
innate toxicity (MTT cell viability) [7]: does not demonstrate an innate toxicity
histological toxicology of major organs [8]: No histological toxicology of any major organ (including the skin) was observed
acute toxic effect ([8]; dermal): does not result in any acute toxic effect
clinical toxicology ([8]; clinical, macroscopic and microscopic observation): no clinical toxicology was observed

C[n+]1ccc(-c2c3nc(c(-c4cc[n+](C)cc4)c4ccc([nH]4)c(-c4cc[n+](C)cc4)c4nc(c(-c5cc[n+](C)cc5)c5ccc2[nH]5)C=C4)C=C3)cc1 [Compound T4MPyP, 5,10,15,20-tetrakis-(4-N-methylpyridyl)-porphine]
inactivation of Escherichia coli (Escherichia coli): efficiently inactivated
